Source: patent US9206173B2, “Heterocyclic compounds for the treatment of stress-related conditions” (OTSUKA PHARMACEUTICAL CO., LTD., priority 2009, dated 2015)
Structures can show the parent of a compound that is named as a salt. Where two headings read alike, the source gives them in different places.

Experiments:
[1] = biological target: T1, human GPR10 (Homo sapiens (Human), UniProt P49683); assay: Inhibitory activity on binding of [3H]-PrRP to GPR10 (HEK 293 cell membrane fraction)
In short: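 Competition with [3H]-PrRP (1 nM final) for membranes from human GPR10-expressing HEK293 cells, 90 min at room temperature in HEPES/EDTA buffer pH 7.4; filtration and scintillation counting.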

[2] = biological target: T1, human GPR10; assay: Antagonistic activity on PrRP-induced intracellular calcium mobilization in human GPR10-expressing HEK293 cells; type: cell-based; conditions: PrRP 1 nM-induced intracellular calcium mobilization, Fluo-8
Protocol: Pharmacological Test 2 Antagonistic Activity on GPR10 Using Human GPR10-Expressing HEK293 Cells.
Antagonistic activity of test compounds on PrRP-induced intracellular calcium mobilization was evaluated using GPR10-expressing HEK293 cells.
HEK293 cells expressing human GPR10 were maintained in Dulbecco's Modified Eagles' medium supplemented with 10% fetal bovine serum, 1% penicillin-streptomycin and 20 mM HEPES at 37° C. in a 5% CO2 incubator. GPR10-expressing HEK293 cells were placed in poly-D-lysine coated 96-well culture plates and cultured for 18-24 hr before the test at a density of 3×10^4 cells/well. […] The cells were incubated with test compounds for 15 min at room temperature, and then PrRP (the final concentration, 1 nM) was added into the medium. The changes in intracellular calcium-dependent fluorescence were monitored using a fluorescence imaging plate reader (FDSS3000, Hamamatsu Photonics K.K.). Fluo-8 fluorescence was measured with excitation at 490 nm and emission at 520 nm. The calcium-dependent fluorescence intensity was calculated by subtracting basal intensity (average intensity for 30 sec before agonist stimulation) from peak intensity for 60 sec after PrRP-stimulation, and then IC50 values were determined by nonlinear curve-fitting program, GraphPad Prism 5.

[3] = [3H]-PrRP 1 nM, human GPR10-expressing HEK 293 cell membrane fraction, Ki from IC50 by Cheng-Prussoff formula

T1 sequence (P49683 whole entry): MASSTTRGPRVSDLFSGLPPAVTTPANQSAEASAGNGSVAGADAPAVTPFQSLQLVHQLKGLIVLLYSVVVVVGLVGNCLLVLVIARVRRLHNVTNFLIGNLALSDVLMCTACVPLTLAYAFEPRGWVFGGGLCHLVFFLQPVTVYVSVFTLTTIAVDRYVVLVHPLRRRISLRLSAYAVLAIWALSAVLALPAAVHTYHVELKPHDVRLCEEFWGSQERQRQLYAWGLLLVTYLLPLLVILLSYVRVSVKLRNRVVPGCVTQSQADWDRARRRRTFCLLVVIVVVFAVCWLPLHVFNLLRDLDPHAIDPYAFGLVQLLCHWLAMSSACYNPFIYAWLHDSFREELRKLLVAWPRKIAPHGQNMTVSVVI

COn1c(N[C@@H](C)c2ccc(C(F)(F)F)cc2)nc2c(c1=O)CN(C(=O)c1ccc(C)s1)CC2 [Example 2404, 3-methoxy-6-(5-methyl-thiophene-2-carbonyl)-2-[(S)-1-(4-trifluoromethylphenyl)ethylamino]-5,6,7,8-tetrahydro-3H-pyrido[4,3-d]pyrimidin-4-one]
Ki [1, 3]: 10 nM
IC50 [2]: 1130 nM

C[C@H](Nc1nc2c(c(=O)n1N(C)C)CN(C(=O)COc1ccc(Cl)cc1)CC2)c1ccc(Cl)cc1 [Example 2431, 6-[2-(4-chlorophenoxy)acetyl]-2-[(S)-1-(4-chlorophenyl)ethylamino]-3-dimethylamino-5,6,7,8-tetrahydro-3H-pyrido[4,3-d]pyrimidin-4-one]
Ki [1, 3]: 207 nM
IC50 [2]: 3600 nM

COn1c(N[C@@H](C)c2ccc(Cl)cc2)nc2c(c1=O)CN(C(=O)COc1ccc(Cl)cc1)CC2 [Example 2430, 6-[2-(4-chlorophenoxy)acetyl]-2-[(S)-1-(4-chlorophenyl)ethylamino]-3-methoxy-5,6,7,8-tetrahydro-3H-pyrido[4,3-d]pyrimidin-4-one]
Ki [1, 3]: 15 nM
IC50 [2]: 1180 nM

C[C@H](Nc1nc2c(c(=O)n1N(C)C)CN(C(=O)c1ccc(C#N)cc1F)CC2)c1ccc(C(F)(F)F)cc1 [Example 5, 6-(4-cyano-2-fluorobenzoyl)-3-dimethylamino-2-(S)-{1-[4-(trifluoromethyl)phenyl]ethylamino}-5,6,7,8-tetrahydropyrido[4,3-d]pyrimidin-4-(3H)-one hydrochloride]
Ki [1, 3]: 8 nM
IC50 [2]: 46 nM

CC#CCn1c(N[C@@H](C)c2ccc(C(F)(F)F)cc2)nc2c(c1=O)CN(C(=O)c1ccc3c(c1)CCC(=O)N3)CC2 [Example 2412, 3-(2-butynyl)-6-(2-oxo-1,2,3,4-tetrahydro-quinoline-6-carbonyl)-2-[(S)-1-(4-trifluoromethylphenyl)ethylamino]-5,6,7,8-tetrahydro-3H-pyrido[4,3-d]pyrimidin-4-one hydrochloride]
Ki [1, 3]: 8 nM
IC50 [2]: 259 nM

COn1c(N[C@@H](C)c2ccc(C(F)(F)F)cc2)nc2c(c1=O)CN(C(=O)c1ccc(C#N)cc1F)CC2 [Example 11, 6-(4-cyano-2-fluorobenzoyl)-3-methoxy-2-(S)-{1-[4-(trifluoromethyl)phenyl]ethylamino}-5,6,7,8-tetrahydropyrido[4,3-d]pyrimidin-4-(3H)-one hydrochloride]
Ki [1, 3]: 15 nM
IC50 [2]: 34 nM

CC#CCn1c(N[C@@H](C)c2ccc(C(F)(F)F)cc2)nc2c(c1=O)CN(C(=O)c1cnc3ccccc3c1)CC2 [Example 2446, 3-(2-butynyl)-6-(quinoline-3-carbonyl)-2-[(S)-1-(4-trifluoromethylphenyl)ethylamino]-5,6,7,8-tetrahydro-3H-pyrido[4,3-d]pyrimidin-4-one]
Ki [1, 3]: 28 nM
IC50 [2]: 2790 nM

COn1c(N[C@@H](C)c2ccc(C(F)(F)F)cc2)nc2c(c1=O)CN(C(=O)COc1ccc(Cl)cc1)CC2 [Example 2389, 6-[2-(4-chlorophenoxy)acetyl]-3-methoxy-2-[(S)-1-(4-trifluoromethylphenyl)ethylamino]-5,6,7,8-tetrahydro-3H-pyrido[4,3-d]pyrimidin-4-one]
Ki [1, 3]: 8 nM
IC50 [2]: 678 nM

C[C@@H](Nc1nc2c(c(=O)n1N1CCCC1)CN(C(=O)c1ccc(C#N)cc1)CC2)c1ccc(C(F)(F)F)cc1 [Example 163]
Ki [1, 3]: 10 nM
IC50 [2]: 648 nM

C#CCn1c(N[C@@H](C)c2ccc(Cl)cc2)nc2c(c1=O)CN(C(=O)c1ccc(Cl)cc1)CC2 [Example 3, 6-(4-chlorobenzoyl)-3-propargyl-2-(S)-{1-[4-chlorophenyl]ethylamino}-5,6,7,8-tetrahydropyrido[4,3-d]pyrimidin-4-(3H)-one]
Ki [1, 3]: 42 nM
IC50 [2]: 1720 nM

CCOn1c(N[C@H](C)c2ccc(C(F)(F)F)cc2)nc2c(c1=O)CN(C(=O)c1ccc(-c3cnco3)cc1)CC2 [Example 104]
Ki [1, 3]: 20 nM
IC50 [2]: 158 nM

COn1c(N[C@@H](C)c2ccc(C(F)(F)F)cc2)nc2c(c1=O)CN(C(=O)c1ccc(Cl)s1)CC2 [Example 2405, 6-(5-chlorothiophene-2-carbonyl)-3-methoxy-2-[(S)-1-(4-trifluoromethylphenyl)ethylamino]-5,6,7,8-tetrahydro-3H-pyrido[4,3-d]pyrimidin-4-one]
Ki [1, 3]: 15 nM
IC50 [2]: 8790 nM

CC#CCn1c(N[C@@H](C)c2ccc(C(F)(F)F)cc2)nc2c(c1=O)CN(C(=O)c1ccc(C#N)cc1F)CC2 [Example 2406, 4-{3-(2-butynyl)-4-oxo-2-[(S)-1-(4-trifluoromethylphenyl)ethylamino]-3,5,7,8-tetrahydro-4H-pyrido[4,3-d]pyrimidine-6-carbonyl}-3-fluorobenzonitrile hydrochloride]
Ki [1, 3]: 2 nM
IC50 [2]: 78 nM

CC#CCn1c(N[C@@H](C)c2ccc(C(F)(F)F)cc2)nc2c(c1=O)CN(C(=O)c1ccc(-n3ccnc3)cc1)CC2 [Example 2402, 3-(2-butynyl)-6-(4-imidazol-1-ylbenzoyl)-2-[(S)-1-(4-trifluoromethylphenyl)ethylamino]-5,6,7,8-tetrahydro-3H-pyrido[4,3-d]pyrimidin-4-one dihydrochloride]
Ki [1, 3]: 6 nM
IC50 [2]: 99 nM

CCOn1c(N[C@H](C)c2ccc(C(F)(F)F)cc2)nc2c(c1=O)CN(C(=O)c1ccc(Cl)cc1)CC2 [Example 86]
Ki [1, 3]: 25 nM
IC50 [2]: 3710 nM

CCOn1c(N[C@H](C)c2ccc(C(F)(F)F)cc2)nc2c(c1=O)CN(C(=O)c1cc3cccnc3s1)CC2 [Example 121]
Ki [1, 3]: 17 nM
IC50 [2]: 1680 nM

C[C@@H](Nc1nc2c(c(=O)n1N1CCCC1)CN(C(=O)c1ccc(C#N)cc1F)CC2)c1ccc(C(F)(F)F)cc1 [Example 166]
Ki [1, 3]: 6 nM
IC50 [2]: 298 nM

C#CCCn1c(N[C@@H](C)c2ccc(C(F)(F)F)cc2)nc2c(c1=O)CN(C(=O)c1ccc(C#N)cc1F)CC2 [Example 2435, 4-{3-(3-butynyl)-4-oxo-2-[(S)-1-(4-trifluoromethylphenyl)ethylamino]-3,5,7,8-tetrahydro-4H-pyrido[4,3-d]pyrimidine-6-carbonyl}-3-fluorobenzonitrile]
Ki [1, 3]: 2 nM
IC50 [2]: 68 nM

CCOn1c(N[C@H](C)c2ccc(C(F)(F)F)cc2)nc2c(c1=O)CN(C(=O)c1ccc(C#N)cc1F)CC2 [Example 95]
Ki [1, 3]: 5 nM
IC50 [2]: 227 nM

COn1c(N[C@@H](C)c2ccc(Cl)cc2)nc2c(c1=O)CN(C(=O)c1ccc(Cl)cc1)CC2 [Example 9, 6-(4-chlorobenzoyl)-3-methoxy-2-(S)-[1-(4-chlorophenyl)ethylamino]-5,6,7,8-tetrahydropyrido[4,3-d]pyrimidin-4-(3H)-one]
Ki [1, 3]: 28 nM
IC50 [2]: 204 nM

CC#CCn1c(N[C@@H](C)c2ccc(C(F)(F)F)cc2)nc2c(c1=O)CN(C(=O)c1ccc3ccccc3n1)CC2 [Example 2449, 3-(2-butynyl)-6-(quinoline-2-carbonyl)-2-[(S)-1-(4-trifluoromethylphenyl)ethylamino]-5,6,7,8-tetrahydro-3H-pyrido[4,3-d]pyrimidin-4-one]
Ki [1, 3]: 24 nM
IC50 [2]: 3350 nM

CC#CCn1c(N[C@@H](C)c2ccc(C(F)(F)F)cc2)nc2c(c1=O)CN(C(=O)c1cc3ccccn3n1)CC2 [Example 2411, 3-(2-butynyl)-6-(pyrazolo[1,5-a]pyridine-2-carbonyl)-2-[(S)-1-(4-trifluoromethylphenyl)ethylamino]-5,6,7,8-tetrahydro-3H-pyrido[4,3-d]pyrimidin-4-one hydrochloride]
Ki [1, 3]: 20 nM
IC50 [2]: 776 nM

C#CCCn1c(N[C@@H](C)c2ccc(C(F)(F)F)cc2)nc2c(c1=O)CN(C(=O)c1ccc(C#N)cc1)CC2 [Example 2433, 4-{3-(3-butynyl)-4-oxo-2-[(S)-1-(4-trifluoromethylphenyl)ethylamino]-3,5,7,8-tetrahydro-4H-pyrido[4,3-d]pyrimidine-6-carbonyl}benzonitrile]
Ki [1, 3]: 5 nM
IC50 [2]: 62 nM

CC#CCn1c(N[C@@H](C)c2ccc(C(F)(F)F)cc2)nc2c(c1=O)CN(C(=O)c1ccc(C#N)cc1)CC2 [Example 2407, 4-{3-(2-butynyl)-4-oxo-2-[(S)-1-(4-trifluoromethylphenyl)ethylamino]-3,5,7,8-tetrahydro-4H-pyrido[4,3-d]pyrimidine-6-carbonyl}benzonitrile hydrochloride]
Ki [1, 3]: 8 nM
IC50 [2]: 207 nM

CC#CCn1c(N[C@@H](C)c2ccc(C(F)(F)F)cc2)nc2c(c1=O)CN(C(=O)c1ccc(-c3cnco3)cc1)CC2 [Example 2410, 3-(2-butynyl)-6-(4-oxazol-5-ylbenzoyl)-2-[(S)-1-(4-trifluoromethylphenyl)ethylamino]-5,6,7,8-tetrahydro-3H-pyrido[4,3-d]pyrimidin-4-one hydrochloride]
Ki [1, 3]: 10 nM
IC50 [2]: 665 nM

COn1c(N[C@@H](C)c2ccc(C(F)(F)F)cc2)nc2c(c1=O)CN(C(=O)/C=C/c1ccc(Cl)cc1)CC2 [Example 2392, 6-[(E)-3-(4-chlorophenyl)acryloyl]-3-methoxy-2-[(S)-1-(4-trifluoromethylphenyl)ethylamino]-5,6,7,8-tetrahydro-3H-pyrido[4,3-d]pyrimidin-4-one]
Ki [1]: 12 nM
IC50 [2]: 5790 nM
